Measured values from PubChem BioAssay (NCI).
“And” between values parts separate entries of the source, which are not always exact repeats. Identical values can stand only once.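 Each compound was tested at five concentrations against cells in 96-well plates for 48 hours. Here, GI50 denotes the concentration required for 50% inhibition of growth. Definition used: TGI = concentration required for complete inhibition of growth.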

Key:
Experiment in all cases: NCI anticancer screen, dose series, 48 h
SNB-75 CNS = system: SNB-75 CNS
UACC-62 melanoma = system: UACC-62 melanoma
SK-OV-3 ovarian = system: SK-OV-3 ovarian
ACHN renal = system: ACHN renal
786-0 renal = system: 786-0 renal
UO-31 renal = system: UO-31 renal
SK-MEL-28 melanoma = system: SK-MEL-28 melanoma
OVCAR-3 ovarian = system: OVCAR-3 ovarian
NCI-H226 lung = system: NCI-H226 lung
NCI-H23 lung = system: NCI-H23 lung

Row | Compound | TGI (SNB-75 CNS) | TGI (UACC-62 melanoma) | GI50 (SK-OV-3 ovarian) | TGI (SK-OV-3 ovarian) | GI50 (ACHN renal) | GI50 (786-0 renal) | TGI (786-0 renal) | GI50 (UO-31 renal) | TGI (UO-31 renal) | TGI (SK-MEL-28 melanoma) | GI50 (OVCAR-3 ovarian) | TGI (OVCAR-3 ovarian) | TGI (NCI-H226 lung) | GI50 (NCI-H23 lung) | GI50 (SNB-75 CNS) | GI50 (UACC-62 melanoma) | TGI (ACHN renal) | GI50 (SK-MEL-28 melanoma) | GI50 (NCI-H226 lung) | TGI (NCI-H23 lung)
1 | CC1=C(N2CC2)C(=O)C(CO)=C(N2CC2)C1=O | 0.38 µM | 0.146 µM and 0.23 µM | 0.186 µM | 1.81 µM | 0.00047 µM | 0.00201 µM | 0.0199 µM and 0.133 µM | 0.00512 µM | 0.0231 µM and 0.0319 µM | 0.228 µM | 0.0377 µM | 0.557 µM and 0.0564 µM | 0.166 µM | 0.00143 µM |  |  |  |  |  | 
2 | O=S(=O)(NCCNc1nccc(-c2c(-c3cccc(O)c3)nc3sccn23)n1)c1ccc(F)cc1 | 34.9 µM | 10.3 µM | 5.37 µM | 59 µM | 3.53 µM | 5.35 µM | 41.8 µM | 4.32 µM | 21 µM | 24 µM | 8.53 µM | 34.5 µM | 45 µM | 11.1 µM | 1.2 µM | 0.26 µM | 28.4 µM | 0.66 µM | 7.03 µM | 38.2 µM
3 | CC(C)(O)[C@@H]1CCC(C)([C@H]2[C@@H](O)CC3(C)C4CC(OC5OC(CO)C(O)C(O)C5O)C5C(C)(C)[C@@H](OC6OCC(O)C(O)C6O)CC[C@@]56C[C@@]46CC[C@]23C)O1 (some centres undefined) | > 100 µM | > 100 µM |  | > 100 µM |  |  | > 100 µM |  | > 100 µM | > 100 µM |  | > 100 µM | > 100 µM |  |  |  | > 100 µM |  |  | > 100 µM
4 | CC(=O)OC1C=CC2CCN3C(=O)c4cc5c(cc4[C@H]1C23)OCO5 (some centres undefined) | > 100 µM | > 100 µM |  | > 100 µM |  |  | > 100 µM |  | > 100 µM | > 100 µM |  | > 100 µM | > 100 µM |  |  |  | > 100 µM |  |  | > 100 µM
5 | Nc1nc(-c2ccccc2)c(-c2ccccc2)c(-c2nc(N)nc(-c3ccccc3)c2-c2ccccc2)n1 | > 100 µM | > 100 µM |  | > 100 µM |  |  | > 100 µM |  | > 100 µM | > 100 µM |  | > 100 µM | > 100 µM |  |  |  | > 100 µM |  |  | > 100 µM
6 | COc1cc(/C=C/C(=O)C(=Cc2ccc(F)c(F)c2)C(=O)/C=C/c2ccc(O)c(OC)c2)ccc1O | 5.97 µM | 5.14 µM | 3.45 µM | 12.5 µM | 3.27 µM | 2.32 µM | 5.5 µM | 3.04 µM | 16.8 µM | 3.8 µM | 1.91 µM | 4.78 µM | 12.1 µM | 2.8 µM | 1.91 µM | 1.93 µM | 19.9 µM | 1.87 µM | 3.39 µM | 8.56 µM
7 | CN(C)CC(C(=O)c1ccccc1)c1ccccc1 (centres undefined) | 14.4 µM | 7 µM | 2.62 µM | 7.77 µM | 1.36 µM | 3.58 µM | 10.4 µM | 1.49 µM | 3.02 µM | 13.6 µM | 1.24 µM | 2.5 µM | 7.79 µM | 2.95 µM | 3.54 µM | 2.05 µM | 2.65 µM | 4.13 µM | 2.42 µM | 12.7 µM
8 | COc1cc2c(cc1OC)C(CCc1ccc(Cl)cc1)N(C)CC2 (centres undefined) | 43.5 µM | 44.5 µM | 32.2 µM | > 100 µM | 25.7 µM | 17.4 µM | 48.9 µM | 20.6 µM | > 100 µM | 46.9 µM | 33.3 µM | > 100 µM | > 100 µM | 30.1 µM | 11.9 µM | 20.1 µM | 92 µM | 20.1 µM | 58.6 µM | > 100 µM
9 | O=C1Cc2cc(CCn3ccnc3)c(Cl)cc2N1 | > 100 µM | > 100 µM | 18.1 µM | > 100 µM | 20.3 µM | > 100 µM | > 100 µM | 58 µM | > 100 µM | > 100 µM | 9.31 µM | 78.1 µM | > 100 µM | 40.8 µM | 21.6 µM | 7.68 µM | > 100 µM | 29.7 µM | > 100 µM | > 100 µM
10 | CCOc1ccc(Cc2nccc3cc(OCC)c(OCC)cc23)cc1OCC | 41.9 µM | 16.5 µM | 16.3 µM | 58.2 µM | 7.54 µM | 9.57 µM | 40.4 µM | 2.87 µM | 32.4 µM | 28.9 µM | 10.5 µM | 23.6 µM | 23.8 µM | 1.93 µM | 13.4 µM | 2.72 µM | 45.1 µM | 14.8 µM | 6 µM | 21.6 µM
11 | Oc1nc(NCCc2ccccc2)sc1/C=C1\C=Nc2ncccc21 | 4.11 µM and 4.29 µM | 8.56 µM and 8.7 µM | 2.08 µM and 2.77 µM | 15.2 µM and 9.07 µM | 2.45 µM and 2.7 µM | 3.03 µM and 3.02 µM | 11.2 µM and 9.85 µM | 3.53 µM and 3.83 µM | 12.4 µM and 84.6 µM | 13.6 µM and 7.58 µM | 2.16 µM and 2.06 µM | 9.39 µM and 7.33 µM | 14.3 µM and 16.1 µM | 1.62 µM and 2.4 µM | 1.81 µM and 1.8 µM | 2.38 µM and 2.93 µM | 19.1 µM and 10.8 µM | 2.83 µM and 2.52 µM | 2.99 µM and 3.27 µM | 5.72 µM and 8.12 µM
12 | CCCNc1nc(N(C)O)nc(N(C)O)n1 | > 75.3 µM | > 56.9 µM | 3.46 µM | > 100 µM | 1.03 µM | 2.53 µM | > 43.4 µM | 0.981 µM | > 40.8 µM | > 91 µM | 0.783 µM | 9.23 µM | > 93.6 µM | 4.73 µM | 16.4 µM | 3.09 µM | > 100 µM | 2.64 µM | 6.49 µM | > 100 µM
13 | CC1C2Cc3ccc(O)cc3C1(C)CCN2C (centres undefined) | > 100 µM | > 100 µM |  | > 100 µM |  |  | > 100 µM |  | > 100 µM | > 100 µM |  | > 100 µM | > 100 µM |  |  |  | > 100 µM |  |  | > 100 µM
14 | O=C1C=C2S[C@H]3C[C@]2(C=C1Br)c1c(c(O)c2c4c1=NCCC=4C=N2)N3 | 2.92 µM | 1.23 µM |  | 17.1 µM |  |  | 2.14 µM |  | 2.94 µM | 2.76 µM |  | 1.12 µM | 4.86 µM |  |  |  | 1.76 µM |  |  | 2.57 µM
